{
  "source": "patent EP4008330A1",
  "about": "“COMBINED INHIBITION OF AMINO ACID TRANSPORTERS FOR INHIBITING HUMAN PLASMACYTOID DENDRITIC CELL ACTIVITY DURING AUTOIMMUNITY” (Max-Planck-Gesellschaft zur Förderung der Wissenschaften …, priority 2020, dated 2022)",
  "key": {"[1]": {"molecular_target": "T1, System LAA transporters SLC7A5 and SLC3A2 (Homo sapiens, UniProt Q01650)", "T1 construct": "freshly isolated pDC from PBMC of healthy donors and SLE patients also expressed System LAA transporters SLC7A5 and SLC3A2; endogenous in cells; host or cells: Primary plasmacytoid dendritic cells isolated from PBMC of human donors", "T1 sequence (Q01650 whole entry)": "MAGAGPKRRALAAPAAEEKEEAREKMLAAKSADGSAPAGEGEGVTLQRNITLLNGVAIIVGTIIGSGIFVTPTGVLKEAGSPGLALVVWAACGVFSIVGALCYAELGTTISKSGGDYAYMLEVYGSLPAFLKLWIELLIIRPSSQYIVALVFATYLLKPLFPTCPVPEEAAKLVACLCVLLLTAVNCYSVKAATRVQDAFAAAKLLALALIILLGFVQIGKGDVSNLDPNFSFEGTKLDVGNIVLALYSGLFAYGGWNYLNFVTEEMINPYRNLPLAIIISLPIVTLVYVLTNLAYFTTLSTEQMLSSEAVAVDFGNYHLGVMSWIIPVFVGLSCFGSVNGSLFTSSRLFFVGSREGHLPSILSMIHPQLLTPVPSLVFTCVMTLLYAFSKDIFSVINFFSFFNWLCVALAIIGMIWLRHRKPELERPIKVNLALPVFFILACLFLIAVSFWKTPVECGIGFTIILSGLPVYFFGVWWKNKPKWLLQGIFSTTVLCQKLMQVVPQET", "T1 sequence (P08195 103-630 partner limits assumed)": "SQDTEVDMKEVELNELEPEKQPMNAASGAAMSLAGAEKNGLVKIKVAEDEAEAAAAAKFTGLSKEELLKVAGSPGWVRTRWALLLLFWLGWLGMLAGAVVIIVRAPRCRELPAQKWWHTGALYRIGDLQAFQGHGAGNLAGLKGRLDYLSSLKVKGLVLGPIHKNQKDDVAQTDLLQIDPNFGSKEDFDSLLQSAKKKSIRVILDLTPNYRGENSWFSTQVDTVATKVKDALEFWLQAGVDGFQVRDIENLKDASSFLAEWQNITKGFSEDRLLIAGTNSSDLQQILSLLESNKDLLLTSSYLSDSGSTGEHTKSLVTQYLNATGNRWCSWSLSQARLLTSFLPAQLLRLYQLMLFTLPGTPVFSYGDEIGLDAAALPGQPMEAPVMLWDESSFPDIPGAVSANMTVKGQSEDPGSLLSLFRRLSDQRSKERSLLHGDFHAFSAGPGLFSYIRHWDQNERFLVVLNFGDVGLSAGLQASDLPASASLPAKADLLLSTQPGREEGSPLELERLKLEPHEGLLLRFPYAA", "assay": "Kynurenine uptake by pDC (flow cytometry), System LAA transporter activity", "format": "cell-based", "procedure": "(§1) Briefly, stained cells were incubated in HBSS (Gibco) with 200 µM kynurenine (Sigma) for 4 min at 37°C.\nTo assess whether IL-3-induced expression of SLC7A5 and SLC3A2 allowed the assembly of a functional System LAA transporter, we used a flow cytometry-based assay that measures the ability of cells to take up kynurenine, a naturally fluorescing molecule that is transported into cells via SLC7A5; this can be used as a proxy measurement of large neutral amino acid (LNAA) uptake. […] Of interest, freshly isolated pDC from PBMC of healthy donors and SLE patients also expressed System LAA transporters SLC7A5 and SLC3A2 (Figure 5D) and furthermore pDC from healthy donors had the ability to take up kynurenine immediately ex vivo, a process that was blocked by BCH (Figure 5E)."}, "pDC [2]": {"tested_on": "pDC", "assay": "Intracellular IFNα and TNFα production by CpG-A-stimulated isolated pDC (flow cytometry)", "format": "cell-based, human", "from_the_text": "PBMC from buffy coats from healthy blood donors were isolated by density gradient centrifugation using SepMate tubes and Lymphoprep (both […] Technologies). pDC were negatively selected from PBMC using the plasmacytoid dendritic cell isolation kit II (Miltenyi Biotec). Buffy coats were kindly provided by the Institute for Transfusion Medicine and Gene Therapy, Medical Center - University of Freiburg (donor consent, anonymized). Skin samples of lupus patients were obtained through the biobank of the SFB829 (Z4 project) with informed consent from all the subjects and ethical approval obtained from the Ethics Committee at the University of Cologne (votes 12-163 and 19-1146). SLE PBMC were provided by ImmRheum biobank in Freiburg, a project that was approved by the local ethical committee (votes 507/16 and 624/14). All patients who provided blood to the biobank had provided written informed consent.\n(§2) Cells were stimulated with 5 µM CpG-A ODN (ODN2216, InvivoGen) for times indicated.\nThe following fluorochrome-conjugated monoclonal antibodies were used for staining cell surface markers: IL-3Ra (CD123) (Miltenyi Biotec, clone AC145), HLA-DR (BD Bioscience, clone G46-6), CD116 (BD Bioscience, clone hGMCSFR-M1), CD4 (Biolegend, clone A161A1). […] Isolated pDC staining was performed in 0.5% BSA in PBS for 10 min at RT, dead cells were excluded with the LIVE/DEAD Fixable Near-IR or Aqua Dead Cell Stain Kits (Thermo scientific). Unspecific binding was blocked with FcR blocking reagent (Miltenyi). The following fluorochrome-conjugated Abs were used for intracellular staining: IFNα (Miltenyi, LT27:295), TNFα (BioLegend, clone Mab11), pS6(S235/236; CST, clone D57.2.2e), pSTAT5 (Y694; CST, clone C71E5). After surface staining, cells were fixed using Fixation/Permeabilization Kit (BD Bioscience) for 20 min at 4°C, and then additionally permeabilized in Perm/Wash solution for 30 min at 4°C, after which cells were incubated with antibodies against intracellular proteins, at previously determined antibody dilutions, for 30 min at RT. […] Cycloheximide (Sigma) at 100 µg/ml was used as a positive control for protein synthesis inhibition."}, "pDC [3]": {"tested_on": "pDC", "assay": "Combined kynurenine uptake and pS6 (S235/236) in pDC (double positive cells)", "format": "cell-based, human", "excerpt": "To confirm that functional System LAA transport is a prerequisite for mTORC1 activation in response to CpG-A, the effects of IL-3 and CpG-A were examined on combined measurements of kynurenine uptake, S6 (S235/236) phosphorylation and cytokine production."}, "pDC [4]": {"tested_on": "pDC", "assay": "Live cells / cell death of isolated pDC (LIVE/DEAD stain)", "format": "cell-based", "procedure": "as §2\n(§3) Isolated pDC staining was performed in 0.5% BSA in PBS for 10 min at RT, dead cells were excluded with the LIVE/DEAD Fixable Near-IR or Aqua Dead Cell Stain Kits (Thermo scientific). Unspecific binding was blocked with FcR blocking reagent (Miltenyi). The following fluorochrome-conjugated Abs were used for intracellular staining: IFNα (Miltenyi, LT27:295), TNFα (BioLegend, clone Mab11), pS6(S235/236; CST, clone D57.2.2e), pSTAT5 (Y694; CST, clone C71E5). After surface staining, cells were fixed using Fixation/Permeabilization Kit (BD Bioscience) for 20 min at 4°C, and then additionally permeabilized in Perm/Wash solution for 30 min at 4°C, after which cells were incubated with antibodies against intracellular proteins, at previously determined antibody dilutions, for 30 min at RT. […] Cycloheximide (Sigma) at 100 µg/ml was used as a positive control for protein synthesis inhibition."}, "pDC [5]": {"tested_on": "pDC", "assay": "De novo protein synthesis in pDC, incorporation of puromycin analogue (OPP)", "format": "cell-based, human", "conditions": "pDC in IL-3, CpG-A for 10 h and inhibitor"}, "pDC [6]": {"tested_on": "pDC", "assay": "Lactate levels in pDC culture medium (Cedex Bio Analyzer)", "format": "cell-based, human", "conditions": "pDC in IL-3, CpG-A and inhibitor for 10 h", "procedure": "as §2\nGlucose and lactate were measured in cell culture supernatants using the Cedex Bio Analyzer (Roche) and data presented as mmol/L."}, "mTORC1": {"tested_on": "mTORC1", "assay": "S6 (S235/236) phosphorylation in pDC by flow cytometry, as measure of mTORC1 activity", "format": "cell-based, human", "conditions": "pDC in IL-3 with inhibitor, stimulated with CpG-A; 20 nM RAP, 1µM AZD, BAR", "procedure": "as §2, §3"}, "STAT5 (Y694)": {"tested_on": "STAT5 (Y694)", "assay": "STAT5 (Y694) phosphorylation in pDC by flow cytometry", "format": "cell-based, human", "conditions": "IL-3-induced; pDC with inhibitor o/n", "procedure": "as §2, §3"}, "SLC7A11": {"tested_on": "SLC7A11", "assay": "SLC7A11 mRNA expression in pDC (PrimeFlow RNA)", "format": "cell-based, human", "conditions": "pDC in IL-3 and inhibitor o/n; for SLC7A11 and SLC7A5 mRNA expression (double positive cells): then CpG-A 5h (Figure 12B)", "procedure": "as §2, §1"}, "SLC7A5 and SLC3A2": {"tested_on": "SLC7A5 and SLC3A2", "assay": "SLC7A5 and SLC3A2 mRNA expression in pDC (PrimeFlow RNA)", "conditions": "pDC in IL-3 and inhibitor o/n, then CpG-A 5h"}, "[7]": {"conditions": "cultured pDC +/- IL-3, +/- CpG-A, 200 µM kynurenine 4 min, 10 mM BCH at time of uptake"}, "[8]": {"conditions": "pDC in IL-3 and inhibitor o/n, then CpG-A 5h, 20 nM RAP, 250 nM TOR, 10µM HPA, 1µM AZD, BAR, 5 µM ERA, 100 or 200 µM SAZ"}, "[9]": {"conditions": "pDC in IL-3 and inhibitor o/n, then CpG-A 5h, 20 nM RAP, 10µM HPA, 1µM AZD, BAR, 5 µM ERA, 100 or 200 µM SAZ"}, "[10]": {"conditions": "pDC in IL-3, CpG-A and inhibitors for 5h after o/n rest (Figure 4E), 10µM HPA, 1 µM oligomycin"}},
  "data": [
    {"compound": "NC1(C(=O)O)CC2CCC1C2", "note": "(centres unmarked) [BCH, 2-Aminobicyclo[2.2.1]heptane-2-carboxylic acid]", "values": [
      {"measurement": "kynurenine uptake", "setting": "[1]; [7]", "value": "abrogated transport of kynurenine in all of the conditions"},
      {"measurement": "kynurenine uptake", "setting": "[1]; pDC from healthy donors immediately ex vivo, 10 mM BCH", "value": "blocked"}
    ]},
    {"compound": "O=C(O)c1cc(/N=N/c2ccc(S(=O)(=O)Nc3ccccn3)cc2)ccc1O", "note": "[Sulfasalazine, sulfasalazine]", "values": [
      {"measurement": "IFNα production", "setting": "pDC [2]; [8]", "value": "inhibited"},
      {"measurement": "TNFα production", "setting": "pDC [2]; [9]", "value": "inhibited"},
      {"measurement": "kynurenine uptake and pS6 (S235/236) expression (cells positive for both)", "setting": "pDC [3]; pDC in IL-3 and inhibitor o/n, then CpG-A 5h", "value": "reductions"}
    ]},
    {"compound": "CCS(=O)(=O)N1CC(CC#N)(n2cc(-c3ncnc4[nH]ccc34)cn2)C1", "note": "[BAR, baricitinib]", "values": [
      {"measurement": "live cells (cell death / cell survival)", "setting": "pDC [4]; BAR 25 to 100 nM, alone or with SAZ, IL-3 o/n, then CpG-A 5h (Figure 14C)", "value": "increased cell death"}
    ]},
    {"compound": "CC(C)[C@H]1CC[C@@]2(CO2)[C@H]2C(=O)OCC(C(=O)O)=C[C@H]12", "note": "[HPA, heptelidic (koningic) acid]", "values": [
      {"measurement": "IFNα production", "setting": "pDC [2]; [8]", "value": "reductions"},
      {"measurement": "TNFα production", "setting": "pDC [2]; [9]", "value": "reductions"},
      {"measurement": "protein synthesis measured by incorporation of puromycin analogue (OPP)", "setting": "pDC [5]", "value": "caused reductions in overall protein synthesis"},
      {"measurement": "lactate levels in medium", "setting": "pDC [6]", "value": "reduced secreted lactate levels to below those in cultures of unstimulated pDC"}
    ]},
    {"compound": "Cc1cc(Nc2nc(N[C@@H](C)c3ncc(F)cn3)ncc2Cl)n[nH]1", "note": "[AZD, AZD1480]", "values": [
      {"measurement": "pS6 (S235/236) expression", "setting": "mTORC1", "value": "reductions"},
      {"measurement": "IFNα production", "setting": "pDC [2]; [8]", "value": "lost and decrease"},
      {"measurement": "TNFα production", "setting": "pDC [2]; [9]", "value": "decrease"},
      {"measurement": "IFNα production", "setting": "pDC [2]; pDC maintained in GM-CSF and inhibitor o/n, then CpG-A 5h (Figure 8)", "value": "inhibited"},
      {"measurement": "kynurenine uptake", "setting": "[1]; [7]", "value": "reductions"},
      {"measurement": "kynurenine uptake and pS6 (S235/236) expression (cells with high rates of kynurenine uptake and mTORC1 activity)", "setting": "pDC [3]; pDC in GM-CSF and inhibitor o/n, then CpG-A 5h (Figure 8)", "value": "inhibited"},
      {"measurement": "pSTAT5 (Y694) expression", "setting": "STAT5 (Y694)", "value": "inhibited"},
      {"measurement": "SLC7A11 and SLC7A5 mRNA expression (double positive cells)", "setting": "SLC7A11", "value": "lost expression of both transporters"},
      {"measurement": "SLC7A5 and SLC3A2 mRNA expression", "setting": "SLC7A5 and SLC3A2", "value": "significantly inhibited"}
    ]},
    {"compound": "CCC(=O)N1CCN(c2ccc(-n3c(=O)ccc4cnc5ccc(-c6cnc7ccccc7c6)cc5c43)cc2C(F)(F)F)CC1", "note": "[TOR, torin1]", "values": [
      {"measurement": "IFNα production", "setting": "pDC [2]; [8]", "value": "similar, although less pronounced effect"},
      {"measurement": "lactate levels in medium", "setting": "pDC [6]", "value": "decline in CpG-A-induced lactate release"},
      {"measurement": "SLC7A11 mRNA expression", "setting": "SLC7A11; then CpG-A 5h", "value": "inhibited"},
      {"measurement": "SLC7A11 and SLC7A5 mRNA expression (double positive cells)", "setting": "SLC7A11", "value": "similar, although less pronounced effect"}
    ]},
    {"compound": "CCOc1ccccc1-n1c(C(C)N2CCN(C(=O)COc3ccc(Cl)cc3)CC2)nc2ccccc2c1=O", "note": "(centres unmarked) [ERA, erastin]", "values": [
      {"measurement": "live cells (cell death)", "setting": "pDC [4]", "value": "absence of appreciable cell death"}
    ]},
    {"compound": "CC[C@H]1/C=C/C=C/C[C@@H](C)[C@H](O)[C@@](C)(O)C(=O)[C@@H](C)[C@H](O)[C@@H](C)C(=O)[C@@H](C)[C@H](O)[C@@H](C)/C=C/C(=O)O[C@@H]2[C@H](C)[C@H](CC1)O[C@]1(CC[C@H](C)[C@H](C[C@@H](C)O)O1)[C@H]2C", "note": "[OLI, oligomycin]", "values": [
      {"measurement": "IFNα production", "setting": "pDC [2]; [10]", "value": "inhibited IFNα production to approximately the same extent as HPA"},
      {"measurement": "TNFα production", "setting": "pDC [2]; [10]", "value": "no effect"}
    ]}
  ]
}
